Results published in ChEMBL document CHEMBL1139280, “Potent inhibitors of HCV-NS3 protease derived from boronic acids” (Bioorg Med Chem Lett, 2009).

Key:
[1] = Inhibition of HCV NS3 protease assessed as hydrolysis of chromogenic 4-phenylazophenyl ester from peptide fragment Ac-DTEDVVP(Nva)-O-4-PAP by spectrophotometry; set-up: species or system Hepacivirus hominis
[2] = system: Hepatitis C virus; experiment: Inhibition of HCV subgenomic RNAs replication in human hepatoma cells; assay type: functional, Hepacivirus hominis

Structure (SMILES)	Ki [1]	EC90 [2]
CC[C@H](NC(=O)[C@@H]1[C@@H]2[C@H](CN1C(=O)[C@@H](NC(=O)N[C@H](CN(C)S(C)(=O)=O)C(C)(C)C)C(C)(C)C)C2(C)C)B(O)O	0.052 µM	> 5 µM
CN(C[C@@H](NC(=O)N[C@H](C(=O)N1C[C@H]2[C@@H]([C@H]1C(=O)N[C@@H](CC1CCC1)B(O)O)C2(C)C)C(C)(C)C)C(C)(C)C)S(C)(=O)=O	0.0002 µM	> 5 µM
CC[C@H](NC(=O)[C@@H]1[C@@H]2[C@H](CN1C(=O)[C@@H](NC(=O)NC(C)(C)C)C(C)(C)C)C2(C)C)B(O)O	0.01 µM	> 5 µM
CN(C[C@@H](NC(=O)N[C@H](C(=O)N1C[C@H]2[C@@H]([C@H]1C(=O)N[C@@H](CC1CCC1)B1O[C@@H]3C[C@@H]4C[C@@H](C4(C)C)[C@]3(C)O1)C2(C)C)C(C)(C)C)C(C)(C)C)S(C)(=O)=O	0.0005 µM	> 5 µM
CC(C)(C)NC(=O)N[C@H](C(=O)N1C[C@H]2[C@@H]([C@H]1C(=O)NC(CC1CCC1)C(=O)C(N)=O)C2(C)C)C(C)(C)C (stereo partly drawn) [BOCEPREVIR]	0.014 µM	0.35 µM

Results, then the compound that gave them:

Ki [1]	EC90 [2]	Structure (SMILES)
0.01 µM	> 5 µM	CC(C)(C)NC(=O)N[C@H](C(=O)N1C[C@H]2[C@@H](C1C(=O)N[C@@H](CC1CCC1)B1O[C@@H]3C[C@@H]4C[C@@H](C4(C)C)[C@]3(C)O1)C2(C)C)C(C)(C)C (stereo partly drawn)
0.38 µM	> 5 µM	CC[C@H](NC(=O)C1[C@@H]2[C@H](CN1C(=O)[C@@H](NC(=O)NC(C)(C)C)C(C)(C)C)C2(C)C)B1O[C@@H]2C[C@@H]3C[C@@H](C3(C)C)[C@]2(C)O1 (stereo partly drawn)
0.5 µM	> 5 µM	CC[C@H](NC(=O)[C@@H]1[C@@H]2[C@H](CN1C(=O)[C@@H](NC(=O)NC(C)(C)C)C(C)(C)C)C2(C)C)B1O[C@@H]2C[C@@H]3C[C@@H](C3(C)C)[C@]2(C)O1
0.034 µM	> 5 µM	CC[C@H](NC(=O)[C@@H]1[C@@H]2[C@H](CN1C(=O)[C@@H](NC(=O)N[C@H](CN(C)S(C)(=O)=O)C(C)(C)C)C(C)(C)C)C2(C)C)B1O[C@@H]2C[C@@H]3C[C@@H](C3(C)C)[C@]2(C)O1
